# Test system: linearized pUC19 DNA
# Experiment: DNA cross-linking assay with linearized pUC19 DNA, denaturing agarose gel electrophoresis
# Format: biochemical
# Details: for DNA interstrand cross-link (ICL) formation: linearized pUC19 DNA
# Procedure: FIGS. 6A-6C depict the DNA crosslinking ability of several compounds according to some embodiments. The DNA cross-linking assays employ linear pUC19 DNA. DMSO was used as vehicle (negative control), and 100 μM cisplatin was used as positive controls. The DNA was analyzed by 0.4% NaOH denaturing and agarose gel electrophoresis (90 V, 1.5 h). FIG. 6A depicts the DNA cross-linking comparison of colibactin 770 (3a), stable colibactin 742 (4), and its linear precursor 9 at pH 5.0. FIG. 6B depicts the comparison of the relative DNA cross-linking abilities of colibactin 742 (4) and its linear precursor 9 at pH 5.0. FIG. 6C depicts the comparison of the relative DNA cross-linking abilities of colibactin 742 (4) and its linear precursor 9 at pH 7.0.
# FIG. 10 depicts the DNA cross-linking assay employing linear pUC19 DNA and synthetic colibactin (3), 9, and colibactin 742 (4) according to some embodiments. Specifically, 5% DMSO was used as vehicle (negative control), and 100 μM cisplatin was used as positive control. DNA ladder (Lane #1); 5% DMSO (Lane #2); 100 μM cisplatin (Lane #3); 200 μM colibactin (3) (Lane #4); 100 μM colibactin (3) (Lane #5); 10 μM colibactin (3) (Lane #6); 1 μM colibactin (3) (Lane #7); 200 μM 9 (Lane #8); 100 μM 9 (Lane #9); 10 μM 9 (Lane #10); 1 μM 9 (Lane #11); 200 μM colibactin 742 (4) (Lane #12); 100 μM colibactin 742 (4) (Lane #13); 10 μM colibactin 742 (4) (Lane #14); 1 μM colibactin 742 (4) (Lane #15). Conditions (Lane #3): linearized pUC19 DNA (15.4 μM in base pairs), 5% DMSO (vehicle), 100 μM cisplatin, 10 mM citric buffer, pH 5.0, 4 h, 37° C. Conditions (Lanes #4-#7): linearized pUC19 DNA (15.4 μM in base pairs), colibactin (3) (200 μM-1 μM), 5% DMSO, 10 mM citric buffer, pH 5.0, 4 h, 37° C. Conditions (Lanes #8-#11): linearized pUC19 DNA (15.4 μM in base pairs), 9 (200 μM-1 μM), 5% DMSO, 10 mM citric buffer, pH 5.0, 4 h, 37° C. Conditions (Lanes #12-#15): linearized pUC19 DNA (15.4 μM in base pairs), colibactin 742 (4) (200 μM-1 μM), 5% DMSO, 10 mM citric buffer, pH 5.0, 4 h, 37° C. The DNA was analyzed by native, 0.2% NaOH, 0.4% NaOH, and 1% NaOH denaturing agarose gel electrophoresis (90 V, 1.5 h). Linear=linearized DNA in native form, linear-denat.=linearized DNA in denaturing form, linear-XL=linerized DNA cross-linked by colibactins or cisplatin.
# FIG. 11 depicts the DNA cross-linking assay employing linear pUC19 DNA and synthetic colibactin fragments 23, 24, and 22. Specifically, 5% DMSO was used as vehicle (negative control), and 100 μM cisplatin was used as positive control. DNA ladder (Lane #1); 5% DMSO (Lane #2); 100 μM cisplatin (Lane #3); 500 μM 23 (Lane #4); 100 μM 23 (Lane #5); 10 μM 23 (Lane #6); 1 μM 23 (Lane #7); 100 nm 23 (Lane #8); 500 μM 24 (Lane #9); 100 μM 24 (Lane #10); 10 μM 24 (Lane #11); 1 μM 24 (Lane #12); 100 nm 24 (Lane #13); 500 μM 22 (Lane #14); 100 μM 22 (Lane #15); 10 μM 22 (Lane #16); 1 μM 22 (Lane #17); 100 nm 22 (Lane #18). Conditions (Lane #2): linearized pUC19 DNA (15.4 μM in base pairs), 5% DMSO (vehicle), 10 mM citric buffer, pH 5.0, 4 h, 37° C. Conditions (Lane #3): linearized pUC19 DNA (15.4 μM in base pairs), 5% DMSO (vehicle), 100 μM cisplatin, 10 mM citric buffer, pH 5.0, 4 h, 37° C. Conditions (Lanes #4-#8): linearized pUC19 DNA (15.4 μM in base pairs), 23 (500 μM-100 nM), 5% DMSO, 10 mM citric buffer, pH 5.0, 4 h, 37° C. Conditions (Lanes #9-#13): linearized pUC19 DNA (15.4 μM in base pairs), 24 (500 μM-1 μM), 5% DMSO, 10 mM citric buffer, pH 5.0, 4 h, 37° C. Conditions (Lanes #14-#18): linearized pUC19 DNA (15.4 μM in base pairs), 22 (500 μM-100 nM), 5% DMSO, 10 mM citric buffer, pH 5.0, 4 h, 37° C. The DNA was analyzed by native, 0.2% NaOH, 0.4% NaOH, and 1% NaOH denaturing agarose gel electrophoresis (90 V, 1.5 h). Linear=linearized DNA in native form, linear-denat.=linearized DNA in denaturing form, linear-XL=DSB/linerized DNA cross-linked by colibactins or cisplatin. […]
SMILES,DNA alkylation,"DNA interstrand cross-link (ICL) formation (pH 5.0, 4 h, 37° C.)","DNA interstrand cross-link (ICL) formation (pH 7.0, 1 nM-100 μM)",concentration inducing stable DNA ICLs relative to 3a (pH 5.0),"stability of the ICLs under increasingly stringent denaturing conditions (pH 5.0, native, 0.2%, 0.4%, 1% NaOH gels)"
C[C@H]1CCC(C2=C(CC(=O)NCC(=O)c3csc(CCc4csc(CNC(=O)CC5=C(C6=N[C@@H](C)CC6)C(=O)NC5(C)C)n4)n3)C(C)(C)NC2=O)=N1 [compound 22],lack of DNA alkylation,failed to form DNA ICLs,–,–,–
C[C@H]1CCC(CC(=O)NC2(C(=O)CC(=O)NCC(=O)c3csc(CCc4csc(CNC(=O)CC(=O)C5(NC(=O)CC6=N[C@@H](C)CC6)CC5)n4)n3)CC2)=N1 [compound 9],–,induced stable DNA ICLs,induced stable ICLs,ten-fold lower,comparable to those derived from 3a
CCOC(=O)c1nc(C2(O)CNC(=O)C2C2=C(C3=N[C@@H](C)CC3)C(=O)NC23CC3)cs1 (some centres unmarked) [compound 24],–,failed to form DNA ICLs,–,–,–
"CCOC(=O)c1csc(CNC(=O)CC2=C(C3=N[C@@H](C)CC3)C(=O)NC23CC3)n1 [compound 23, reference compound]",–,failed to form DNA ICLs,–,–,–

# — US20250026747A1, “COLIBACTIN DERIVATIVES AND METHODS OF TREATING, AMELIORATING, AND/OR PREVENTING CANCER” (priority 2021, published 2025)
